In paper PMC11093748, “De novo identification of CD4^+ T cell epitopes” (Nature Methods, 2024):

How the values were obtained:
Jurkat cells, No TCR = experiment: Single SABR-II co-incubation, background without TCR; format: cell-based, human; conditions: No TCR, Ext. Data Fig. 6C, 18-20 hr
Excerpt: (§1) We performed systematic screening of the cloned TCRs against the I-Ag7 SABR-II library. Several TCRs along with a positive control (such as BDC2.5 or 4-8Ins) were screened individually against the library for each sort (Extended Data Fig. 6a and Supplementary Table 4). High- and low-confidence ES zones for each screened TCR were defined by the ES values of the control TCR’s cognate epitopes. For all putative cognate epitopes, single SABR-IIs were constructed, expressed in NFAT–GFP Jurkat cells and used for co-incubation with the corresponding TCRs. Co-incubation assays that yielded a GFP signal higher than that obtained in assays with no TCR were determined to be positive and the epitopes deemed true cognate ligands (Extended Data Fig. 6b,c). Using this strategy, we obtained epitopes in the high-confidence zone for eight TCRs (Fig. 3a and Extended Data Fig. 6b,d). Among numerous altered peptide ligands (APLs), these TCRs recognized the physiological InsC-ChgA HIP ([…] and analogs, recognized by TCR5, TCR6B, TCR9 and TCR34), InsC-Iapp HIP ([…] and analogs, recognized by TCR4 and TCR15) and InsB9:23 ([…] and analogs recognized by TCR24 and TCR37). These cognate high-confidence hits were validated using single SABR-II co-incubation assays (Fig. 3b and Extended Data Fig. 7a). Further validations using in vitro mouse interleukin-2 (mIL-2) secretion by TCR-expressing 5KC reporter cells[13] or CD25 expression by TCR-expressing splenic CD4^+ T cells upon stimulation with the cognate epitope were performed (Extended Data Fig. 7b,c). Furthermore, low-confidence hits were called for ten TCRs and tested in co-incubation assays.
(§2) For SABR library screens, 3 × 10^6 NFAT–GFP Jurkat cells expressing the SABR library were labeled with CellTrace Violet (BioLegend) according to the manufacturer’s protocol before incubation with 3 × 10^6 Jurkat cells expressing the TCR of interest. These mixtures were incubated in a six-well plate for 16–20 h. Cells were stained with anti-CD69-APC-Cy7 where indicated (BioLegend) and the top 1–2% of GFP^+CD69^+ cells were sorted for genomic DNA extraction, indexing and sequencing (see below). Multiplexed assays were scaled on a per-TCR basis (for example 3 × 10^6 for each of three TCRs against 9 × 10^6 library cells). For single SABR assays, unless otherwise defined, 5 × 10^5 SABR expressing NFAT–GFP Jurkat cells (or 5KC cells) were labeled with CellTrace Violet (BioLegend) according to the manufacturer’s protocol before incubation with 5 × 10^5 TCR-expressing Jurkat cells (or 5KC cells) in a round-bottom 96-well plate for 16–20 h. Cells were stained with anti-CD69-APC-Cy7 when indicated and acquired on the Attune NxT flow cytometer (Thermo Fisher Scientific). All flow analysis was performed using FlowJo (BD). For Daudi cell co-culture, 1 × 10^6 Jurkat cells expressing the TCR of interest were incubated with 1 × 10^6 Daudi cells expressing a SABR of interest for 3 days. On day 3, cells were labeled with anti-RT1B-PE and anti-Fas-APC-Cy7 before being acquired on the Attune NxT flow cytometer.

TCR5 = experiment: Single SABR-II co-incubation, NFAT-GFP Jurkat; format: cell-based, mouse; conditions: TCR 5, Ext. Data Fig. 6C, 18-20 hr
Excerpt: as §1, §2

BDC2.5 TCR = experiment: I-Ag7 SABR-II library screen, enrichment score; format: cell-based, mouse; conditions: I-Ag7 library
Excerpt: We then asked whether SABR-IIs could be used to present a library of epitopes for CD4^+ T cell antigen discovery. To that end, we constructed a SABR-II library to present epitopes derived from pancreatic islets in I-Ag7 by curating a list of 4,075 published epitopes from the Immune Epitope Database (iedb.org)[50] and a study by Wan et al.[51] (Supplementary Table 1). Of note, this defined library consisted of unmodified epitopes from endogenous proteins, synthetic mimotopes, deamidated epitopes and hybrid insulin peptides (HIPs) that arise from post-translational fusion and are not genetically encoded in vivo[52],[53]. The epitope library was inserted into the I-Ag7 SABR-II backbone through pooled oligonucleotide synthesis, amplification and ligation-free cloning (Extended Data Fig. 3a). The I-Ag7 SABR-II-library was then expressed in NFAT–GFP Jurkat cells. We confirmed that after sequencing, the library accounted for a mean of 708 reads per epitope (Extended Data Fig. 3b). As a proof of concept, we performed co-incubation assays with Jurkat cells expressing the BDC2.5 TCR and sorted the top 1–2% of GFP^+CD69^+ cells at a rate of ~20 min per replicate with three replicates per TCR. We extracted the genomic DNA from sorted cells, amplified the SABR portion of the integrated proviruses and subjected the amplicons to Illumina sequencing (Extended Data Fig. 3c,d). The 1–2% sort gate represents >50-fold enrichment of cognate epitopes with minimal loss of signal (Extended Data Fig. 3e–h). Sequence reads were aligned to the I-Ag7 SABR-II backbone and the corresponding epitopes were scored based on their read counts. For each TCR under investigation, an enrichment score (ES) was determined for all the epitopes in a library. In each experiment, three replicates of a sort with TCR-expressing Jurkat cells were performed and reads were counted post-sequencing. In addition, three replicates of the unsorted library were also sequenced. A linear regression model was built using the unsorted library counts and used to determine the expected abundance of each epitope in the library. The ES was calculated based on the difference between the measured and the expected abundance of each epitope on a per-TCR basis (Fig. 1e). Based on ES values, two quantitative thresholds were used to determine putative cognate epitopes of a given TCR. A high-confidence zone containing clear outliers with a high ES and a low-confidence zone containing weak outliers with a moderately high ES were determined (Fig. 1e). This two-tiered strategy was used to call putative hits from screens. All the top-scoring epitopes for the BDC2.5 TCR were known BDC2.5 ligands containing the WXRM(D/E) motif (Fig. 1f,g, enriched ligands in red), a well-characterized trait of the BDC2.5 TCR[43],[54]–[56]. Across several independent experiments there was limited variation in ES values for the same TCRs and several epitopes fell into high- or low-confidence zones consistently (Extended Data Fig. 4a). Using a different TCR that was isolated from NOD mice, 4-8Ins[57], which recognized the InsB9:23 epitope ([…]), we observed a similar pattern of ES for cognate epitopes (Extended Data Fig. 4b).
For SABR library screens, 3 × 10^6 NFAT–GFP Jurkat cells expressing the SABR library were labeled with CellTrace Violet (BioLegend) according to the manufacturer’s protocol before incubation with 3 × 10^6 Jurkat cells expressing the TCR of interest. These mixtures were incubated in a six-well plate for 16–20 h. Cells were stained with anti-CD69-APC-Cy7 where indicated (BioLegend) and the top 1–2% of GFP^+CD69^+ cells were sorted for genomic DNA extraction, indexing and sequencing (see below). Multiplexed assays were scaled on a per-TCR basis (for example 3 × 10^6 for each of three TCRs against 9 × 10^6 library cells). […]

TCR4 = experiment: Single SABR-II co-incubation, NFAT-GFP Jurkat; format: cell-based, mouse; conditions: TCR 4, Ext. Data Fig. 6C, 18-20 hr
Excerpt: as §1, §2

[1] = EXPT1 of 8 biological experiments

Row | Sequence | %GFP+CD69+ cells of SABR-NFAT-GFP-Jurkat cells (Jurkat cells, No TCR; technical replicate 1) | %GFP+CD69+ cells of SABR-NFAT-GFP-Jurkat cells (Jurkat cells, No TCR; technical replicate 2) | %GFP+CD69+ cells of SABR-NFAT-GFP-Jurkat cells (TCR5; technical replicate 1) | %GFP+CD69+ cells of SABR-NFAT-GFP-Jurkat cells (TCR5; technical replicate 2) | Enrichment score (BDC2.5 TCR; [1]) | Enrichment score (BDC2.5 TCR; EXPT2 of 8) | Enrichment score (BDC2.5 TCR; EXPT3 of 8) | Enrichment score (BDC2.5 TCR; EXPT4 of 8) | Enrichment score (BDC2.5 TCR; EXPT5 of 8) | Enrichment score (BDC2.5 TCR; EXPT6 of 8) | Enrichment score (BDC2.5 TCR; EXPT7 of 8) | Enrichment score (BDC2.5 TCR; EXPT8 of 8) | %GFP+CD69+ cells of SABR-NFAT-GFP-Jurkat cells (TCR4; technical replicate 1) | %GFP+CD69+ cells of SABR-NFAT-GFP-Jurkat cells (TCR4; technical replicate 2)
1 | EKAHHAIWARMDAKK | 0.95% | 0.84% | 38% | 39.6% | – | – | – | – | – | – | – | – | – | –
2 | EKAHHPIWARMDAKK | 0.55% | 0.54% | 34.4% | 35.1% | 0.000952 | 0.00052 | 0.00087 | 0.00058 | 0.001178 | 0.001392 | 0.000919 | 0.000731 | – | –
3 | EKAHLAIWARMDAKK | 0.84% | 1% | 79.9% | 77.9% | – | – | – | – | – | – | – | – | – | –
4 | EKAHVPIWARMDAKK | 2.48% | 2.95% | 29.9% | 30.2% | 0.000866 | 0.000378 | 0.000722 | 0.00038 | 0.000744 | 0.001001 | 0.000451 | 0.000387 | – | –
5 | PGAGDLQTLALNAARDP | 2.65% | 2.56% | – | – | – | – | – | – | – | – | – | – | 20.2% | 20.4%
